Measurements reported in US8759382B2, “Propargyl-trifluoromethoxy-aminobenzothiazole derivatives, their preparation and use” (Teva Pharmaceutical Industries Ltd., priority 2010, dated 2014).

System: EAE induced in the CSJL/FI strain of mice
Assay: EAE model in CSJL/FI mice (MSCH/CFA-induced), clinical scoring
Assay type: in vivo
Procedure: EAE induced in the CSJL/FI strain of mice was selected to test the compounds mentioned above, as it is an established EAE model to test the efficacy of candidate molecules for MS treatment.
Disease was induced in all mice by the injection of the encephalitogenic emulsion (MSCH/CFA). Treatment was started from day 1 of the study or at disease onset and was administered every day, orally (BID), from onset of the study.
Healthy, nulliparous, non-pregnant female mice of the CSJL/FI strain obtained from Harlan Animal Breeding Center, Jerusalem, Israel were used in the study. The animals weighed about 17-20 g on arrival, and were approximately 9 weeks of age at initiation of the study. Overtly healthy animals were assigned to study groups arbitrarily before treatment commenced.
The mice were allocated to the following 8 groups of 10 mice each:
Treatments in all groups were administered orally.
The emulsion was made from equal parts of oil (4 mL CFA containing 1.0 mg/ml MT) and liquid portions ([…] MSCH/2.5 mL PBS) in two syringes connected to each other with a Leur lock. The concentration of MSCH in emulsion is 40 mg/mL.
The emulsion was transferred to an insulin syringe before injection. 0.05 ml was injected into the left foot-pad of each mouse.
104 μL Pertussis toxin (200 μg/ml) was added to 25.87 ml PBS to yield 800 ng/ml. The pertussis toxin was administered intravenously on the day of the encephalitogen injection and 48 hours later (160.0 ng/0.2 ml/mouse×2=320 ng/mouse).
Laquinimod was diluted in DDW water to yield 0.1 mg/ml. The solution was stored in an amber colored bottle at 2 to 8° C. The 0.1 mg/ml laquinimod was administered orally, once, daily from the initiation of the study until study termination (Day 23).
Compounds B and C were dissolved in 5% Dextrose to concentrations of 2.5, 5.0 and 10 mg/ml for dose levels of 25, 50 and 100 mg/kg respectively. Test samples were freshly prepared. The 2.5, 5.0 and 10 mg/ml concentrations of Compounds B and C were administered orally, twice daily (BID) from initiation of study until study termination (Day 23) to groups
Scoring of EAE clinical signs were initiated from the 10th day post-EAE induction and were continued daily. The clinical signs were recorded on observation cards according to a grading system described in the table below.
All mice having scores of 1 and above were considered sick.
Animals with a score of 4 for more than two days were given a score of 5 and sacrificed for humane reasons. For calculation purposes, the score (5) of animals that are sacrificed or died will be carried forward (LOCF).
The number of sick animals in each group was summed.
The incidence of disease was calculated as
The percent inhibition according to incidence was calculated as: […]
The number of dead or moribund animals in each group was summed.
The mortality of disease was calculated as
The percent inhibition according to mortality was calculated as
The mean delay in onset of disease expressed in days is calculated by subtracting the mean onset of disease in control group from test group.
The mean maximal score (MMS) of each group was calculated as
The percent inhibition according to MMS was calculated as
The daily scores of each mouse in the test group was summed and the individual mean daily score (IMS) was calculated as
The mean group score (GMS) was calculated as
The percent inhibition was calculated as
This example was performed in the same manner as example 3 with the following groups:
Compound A was prepared for administration by mixing in 0.5% methyl cellulose (0.5% MC) to concentrations of 2.5, 5.0 and 10 mg/ml for dose levels of 25, 50 and 100 mg/kg respectively. The samples were vortexed and sonicated until a clear solution was obtained.
The 2.5, 5.0 and 10 mg/ml concentrations of Compound A were administered orally, twice daily (BID) from initiation of study until study termination (Day 23) at a volume dose of 0.2 ml/mouse.
Compound B was prepared for administration as in Example 3. […]

[1] = Example 3, all dose levels (25, 50, 100 mg/kg BID oral) in 5% dextrose
[2] = Example 3, 1 mg/kg QD oral, Day 0 to 22, percent inhibition vs 5% dextrose negative control

**Q.** What does the source list for `C#CCN1CCN(c2nc3ccc(OC(F)(F)F)cc3s2)CC1` [Compound A, 2-(4-(prop-2-ynyl)piperazin-1-yl)-6-(trifluoromethoxy)benzo[d]thiazole]?
**A.** protection from disease onset and severity (in words) (Example 4, 25, 50 and 100 mg/kg BID oral in 0.5% methyl cellulose, all doses tested): almost complete protection; efficacy compared with Compound B (Example 4, Compound A 25-100 mg/kg BID vs Compound B 15-25 mg/kg BID, oral): better than Compound B

**Q.** Which results are given for `C#CCNCc1nc2ccc(OC(F)(F)F)cc2s1` [Compound B, N-((6-(trifluoromethoxy)benzo[d]thiazol-2-yl)methyl)prop-2-yn-1-amine]?
**A.** mortality (Example 3, 25 mg/kg BID oral): no mortality; activity based on GMS (EAE inhibition) (Example 3, 25 mg/kg BID oral in 5% dextrose, Day 0 to 22): 55.9%; activity based on GMS (EAE inhibition) (Example 3, 100 mg/kg BID oral in 5% dextrose, Day 0 to 22): 56.4%; activity in EAE (in words) [1]: some activity; activity in EAE (in words) (Example 4, 15 and 25 mg/kg BID oral, Day 0 to 22): moderate activity

**Q.** Which “activity in EAE (in words)” value [1] does the source give for `C#CCN(C)Cc1nc2ccc(OC(F)(F)F)cc2s1` [Compound C, N-methyl-N-((6-(trifluoromethoxy)benzo[d]thiazol-2-yl)methyl)prop-2-yn-1-amine] here?
**A.** some activity

**Q.** For `CCN(C(=O)c1c(O)c2c(Cl)cccc2n(C)c1=O)c1ccccc1` [laquinimod, reference compound], which “activity according to GMS (group mean score)” value [2] is on record?
**A.** 96.7%

**Q.** And the “activity according to MMS (mean maximal score)” value [2]?
**A.** 93.5%

**Q.** What about the “activity according to incidence” value [2] of the same compound?
**A.** 80%
